Literature values in article PMC4832308 (Cancer, 2015).

Key:
patients [1] = conditions: phase 1 study; cited from earlier work
patients [2] = conditions: phase 1 study, cited from earlier work

SMILES: COc1ccc(-c2ccc3c(N4CCOC[C@@H]4C)nc(N4CCOC[C@@H]4C)nc3n2)cc1CO [AZD8055]
- best response SD rate (patients [1]): 14.3%
- patients with best response SD (patients [1]): 7 patients

SMILES: CC(C)n1nc(-c2ccc3oc(N)nc3c2)c2c(N)ncnc21 [MLN0128]
- patients with a response (patients [2]; MM): 1 patient
- response rate (patients [2]; MM): 4%
- response duration (patients [2]; patient with MM): ~2 months
- patients with SD (patients [2]): 15 patients
